The values below come from patent publication EP2664619B1, “Purine derivatives as tools for screening anti-Alzheimer compounds” (Manros Therapeutics, priority 2012, dated 2013).

The test system of one data set is Aβ42 production. The experiment in a line: Sandwich ELISA measurement of Aβ42 levels in supernatant of treated N2a-APP695 cells. The class given is cell-based, Mouse. The note with it: N2a-APP695 cells; for EC50: Mus musculus, 18h incubation, ELISA assay, read-out: EC50 (µM) at inducing Aβ42 production. On the procedure:
Mouse neuroblastoma cells (N2a cells) or N2a-APP695 cells (N2a cell line stably transfected with APP695, an amyloid precursor protein) were cultured in an essential medium composed of Dulbecco's minimal essential medium (DMEM) and of OptiMEM® (1:1, v/v) (Gibco®) containing 0.2 mg/mL Geniticin (Geneticin® Selective Antibiotic, Gibco®) and 5 % fetal bovine serum (FBS, Gibco®, EU approved origin) in a humidified, 5% CO2 incubator at 37°C. Routinely, cells were split without use of Trypsin every 4/5 days. They were first rinsed with PBS (Gibco) and detached from the plate bottom using 4 mL Versene (Gibco) at room temperature for 3-4 min. 8 mL of fresh medium were added to the cell suspension, and the mix was centrifuged for 3 min at 1,000 rpm. The cell pellet was resuspended in fresh medium before seeding (1/10 dilution) in new flasks.
The N2a-APP695 cells were seeded at 10.000 cells/well in a 96 well plate with modified media (0.5% FBS) and incubated overnight. Cells were treated with fresh media comprising different compounds according to the invention (equal quantity of DMSO sold by Sigma®). They were then incubated for 18h in a humidified, 5% CO2 incubator.
Purines according to the invention were added at various concentrations to N2a-APP695.
The plate was finally centrifuged to remove cell fragments before collecting supernatant samples for amyloids levels determination.
Then, Aβ38, Aβ40 and Aβ42 levels were measured in a sandwich ELISA (Enzyme-Linked ImmunoSorbent Assay) using a combination of monoclonal antibody 6E10 (mAb 6E10) (sold by Covance® under the reference SIG-39320) and biotinylated polyclonal Aβ38, Aβ40 or Aβ42 antibodies (provided by Dr. P.D. Mehta, IBR, Staten Island, USA).
A solution of 100 µl mAb 6E10 diluted in carbonate-bicarbonate buffer, pH 9.6, was coated in the wells of microtiter plates (Maxisorp™ sold by Nunc®) and incubated at 4°C overnight. The plates were then washed with PBST (PBS tablets sold by Gibco®) containing 0.05% Tween-20 (Sigma®), and blocked for 1 h with 1% BSA (Sigma®) in PBST (PBS tablets sold by Gibco®) containing 0.05 Tween-20 (Sigma®) to avoid nonspecific binding.
Following a washing step, samples were added and incubated for 2 hours at room temperature (RT) and then at 4°C overnight. Plates were then washed before incubation with biotinylated polyclonal antibody diluted in PBST (PBS tablets sold by Gibco®) containing 0.05 Tween-20 (Sigma®) + 0.5% BSA at room temperature for 75 minutes.
After a washing step, streptavidin-horseradish peroxidase conjugate (Streptavidin poly-HRP, Thermo Scientific Pierce®), diluted in PBS + 1% BSA, was added and incubation was carried out for 45 min at room temperature. After washing, 100 µl of o-phenylenediamine dihydrochloride (OPD tablets, Invitrogen®) diluted in citrate buffer pH 5.0 were added. The reaction was stopped after 15 min with the addition of 100 µl 1 N sulfuric acid.
A range of known concentrations of Aβ38, Aβ40 and Aβ42, ranging from 0.01 to 10 ng/mL for Aβ38 and Aβ42, and ranging from 0.001 to 10 ng/mL for Aβ40, were use as a reference scale to determine the concentrations of Aβ38, Aβ40 and Aβ42 obtained.
The optical density was finally measured at 490 nm in a microELISA reader (sold by BioTek Instrument, reference E1 800, Gen 5 software).
The EC50 of the molecules tested were thus calculated.

The subject of a further data set is N2a-APP695 cells. The experiment in a line: MTS cell viability assay in the same wells as the ELISA. The note with it: MTS assay, N2a-APP695 cells; for Toxicity: class symbol; for Toxicity (concentration in brackets): concentration above which toxic. In general terms: Tetrazolium dyes change colour on reduction, which living cells bring about.

A value given as a limit tells only on which side of the number the result lay.

Turning to `CC[C@H](CO)Nc1nc(N(C)Cc2cccc(OC)c2)c2ncn(C(C)C)c2n1` [Compound 36], the EC50 in the data set on Aβ42 production came out at 105 µM. In the data set on N2a-APP695 cells, the Toxicity result was “+” and the “Toxicity (concentration in brackets)” value is on record as greater than 100 µM.
For `CC[C@@H](CO)Nc1nc(N(C)c2ccccc2)c2ncn(C(C)C)c2n1` [Compound 26], the EC50 in the data set on Aβ42 production was 17 µM. In addition, the Toxicity entry with N2a-APP695 cells was “- ("-" means that the tested compound is non toxic with a concentration higher than 100 µM)”.
For `CC[C@H](CO)Nc1nc(OCc2ccccc2)c2ncn(C(C)C)c2n1` [Aftin-3], in that order: 13 µM and “- ("-" means that the tested compound is non toxic with a concentration higher than 100 µM)”.
In the case of `CC[C@H](CO)Nc1nc(N(C)Cc2ccccc2)c2ncn(C3CCCC3)c2n1` [Compound 14], in the data set with Aβ42 production, the EC50 amounted to 2.7 µM. Further, in the data set on N2a-APP695 cells, the Toxicity entry is “+” and the “Toxicity (concentration in brackets)” value is given as greater than 20 µM.
For `CCN(CC)CCNc1nc(N(CC)Cc2ccccc2)c2ncn(C3CCCC3)c2n1` [Compound 22], in that order: 0.8 µM, “+” and greater than 12 µM.
Regarding `CN(Cc1ccccc1)c1nc(N)nc2c1ncn2C1CCCC1` [Aftin-2, N6-Benzyl-9-cyclopentyl-N6-methyl-purine-2,6-diamine], the EC50 in the data set on Aβ42 production turned out to be 11 µM. Also, the Toxicity result with N2a-APP695 cells was “- ("-" means that the tested compound is non toxic with a concentration higher than 100 µM)”.
Regarding `CC[C@H](CO)Nc1nc(N(C)Cc2ccc(F)cc2)c2ncn(C(C)C)c2n1` [Compound 38], the EC50 in the data set on Aβ42 production turned out to be 55 µM. In addition, in the data set with N2a-APP695 cells, the Toxicity result is recorded as “+” and the “Toxicity (concentration in brackets)” value is reported as greater than 12 µM.
With `CC(C)n1cnc2c(N(C)Cc3ccc(-c4ccccn4)cc3)nc(NC[C@H](O)CO)nc21` [Compound 29], in the data set on Aβ42 production, the EC50 was 10 µM. The Toxicity entry in the data set on N2a-APP695 cells was “- ("-" means that the tested compound is non toxic with a concentration higher than 100 µM)”.
For `CC[C@H](CO)Nc1nc(N(C)Cc2ccc(-c3ccccc3)cc2)c2ncn(C(C)C)c2n1` [Compound 21], in that order: 0.45 µM and “+”.
The matching figures for `CC[C@@H](CO)Nc1nc(OCc2ccccc2)c2ncn(C(C)C)c2n1` [Compound 32]: 21 µM and “- ("-" means that the tested compound is non toxic with a concentration higher than 100 µM)”.
Take `CC[C@H](CO)Nc1nc(N(C)Cc2ccc(-c3ccccn3)cc2)c2ncn(C(C)C)c2n1` [Compound 16]: the EC50 in the data set on Aβ42 production was found to be 3.2 µM. For the same molecule, in the data set with N2a-APP695 cells, the Toxicity result is given as “+” and the “Toxicity (concentration in brackets)” value is greater than 31 µM.
In the case of `CCC(CO)Nc1nc(N(C)c2ccc(F)cc2)c2ncn(C(C)C)c2n1` (centres unmarked) [Compound 34], in the data set on Aβ42 production, the EC50 is 30 µM. In the data set with N2a-APP695 cells, the Toxicity result is recorded as “- ("-" means that the tested compound is non toxic with a concentration higher than 100 µM)”.
For the molecule `CC(C)n1cnc2c(N(C)c3ccccc3)nc(N(CCO)CCO)nc21` [Compound 39], the concentration for a half-maximal effect (EC50) in the data set on Aβ42 production is greater than 150 µM.
Turning to `CC(C)n1cnc2c(N(C)c3ccccc3)nc(NCCO)nc21` [Compound 40], the EC50 in the data set with Aβ42 production was greater than 150 µM. For the same molecule, the Toxicity result in the data set on N2a-APP695 cells is listed as “- ("-" means that the tested compound is non toxic with a concentration higher than 100 µM)”.
Consider `CC[C@H](CO)Nc1nc(N(CC)Cc2ccccc2)c2ncn(Cc3ccccc3)c2n1` [Compound 18], for which the EC50 in the data set with Aβ42 production was 1.3 µM. Also, in the data set with N2a-APP695 cells, the Toxicity result was “+” and the “Toxicity (concentration in brackets)” value is greater than 12 µM.
For `CC[C@H](CO)Nc1nc(N(C)c2ccc(OC)cc2)c2ncn(C(C)C)c2n1` [Compound 44, (2R)-2-[[9-isopropyl-6-[(4-methoxyphenyl)-methyl-amino]purin-2-yl]amino]butan-1-ol], in that order: 4.5 µM, “+” and greater than 21 µM.
For `CC[C@H](CO)Nc1nc(N(Cc2ccccc2)C(C)C)c2ncn(C(C)C)c2n1` [Compound 23, (2R)-2-[[6-[benzyl(isopropyl)amino]-9-isopropylpurin-2-yl]amino]butan-1-ol], in the data set on Aβ42 production, the EC50 was determined as 2.5 µM. Besides, in the data set on N2a-APP695 cells, the Toxicity result was “+” and the “Toxicity (concentration in brackets)” value is given as greater than 12 µM.
`CC[C@@H](CO)Nc1nc(N(C)Cc2ccc(-c3ccccn3)cc2)c2ncn(C(C)C)c2n1` [Compound 28]: the EC50 in the data set on Aβ42 production stood at 2.8 µM. Moreover, in the data set with N2a-APP695 cells, the Toxicity entry is “+” and the “Toxicity (concentration in brackets)” value is listed as greater than 12 µM.
Turning to `CC[C@H](CO)Nc1nc(N(C)Cc2ccccc2)c2ncn(Cc3ccccc3)c2n1` [Compound 17], the EC50 in the data set with Aβ42 production amounted to 0.7 µM. In the data set with N2a-APP695 cells, the Toxicity entry was “+” and the “Toxicity (concentration in brackets)” value is on record as greater than 12 µM.
With `CC(C)n1cnc2c(N(C)Cc3ccccc3)nc(N)nc21` [Aftin-1, N6-benzyl-9-isopropyl-N6-methyl-purine-2,6-diamine], the EC50 in the data set with Aβ42 production was found to be 20 µM. Also, in the data set on N2a-APP695 cells, the Toxicity result is “+”.
As for `CC[C@H](CO)Nc1nc(N2CCc3ccccc3C2)c2ncn(C(C)C)c2n1` [Compound 24], the EC50 in the data set on Aβ42 production was 3.5 µM. In addition, in the data set on N2a-APP695 cells, the Toxicity result is on record as “+” and the “Toxicity (concentration in brackets)” value is reported as greater than 31 µM.
For `CC[C@H](CO)Nc1nc(N(CC)c2ccccc2)c2ncn(C(C)C)c2n1` [Compound 42], in that order: 25 µM, “+” and greater than 100 µM.
`CC[C@H](CO)Nc1nc(NCc2ccccc2)c2ncn(C(C)C)c2n1` [Compound 2, reference compound]: the Toxicity result in the data set with N2a-APP695 cells is given as “- ("-" means that the tested compound is non toxic with a concentration higher than 100 µM)”.
With `CC[C@H](CO)Nc1nc(N(CC)Cc2ccccc2)c2ncn(C(C)C)c2n1` [Compound 13], the EC50 with Aβ42 production worked out at 3.8 µM. Besides, in the data set on N2a-APP695 cells, the Toxicity result is “+” and the “Toxicity (concentration in brackets)” value was greater than 31 µM.
Turning to `CN(Cc1ccccc1)c1nc(N)nc2[nH]cnc12` [Compound 1, reference compound], the EC50 in the data set with Aβ42 production worked out at 100 µM. The Toxicity entry in the data set on N2a-APP695 cells was “- ("-" means that the tested compound is non toxic with a concentration higher than 100 µM)”.
Consider `CC[C@@H](CO)Nc1nc(N(C)Cc2ccc(F)cc2)c2ncn(C(C)C)c2n1` [Compound 37], for which the concentration for a half-maximal effect (EC50) in the data set on Aβ42 production is 52 µM. Moreover, in the data set on N2a-APP695 cells, the Toxicity entry is given as “+” and the “Toxicity (concentration in brackets)” value is greater than 12 µM.
Consider `CC(C)n1cnc2c(N(C)Cc3ccc(F)cc3)nc(NC3CCNCC3)nc21` [Compound 33], for which, in the data set on Aβ42 production, the EC50 is 10 µM. Moreover, in the data set on Aβ42 production (Aβ42 production), the “fold (printed in the EC50 cell)” value came out at 2 fold. In addition, in the data set on N2a-APP695 cells, the Toxicity entry is “+” and the “Toxicity (concentration in brackets)” value was greater than 12 µM.
Take `CC(C)n1cnc2c(N(C)Cc3ccccc3)ncnc21` [Compound 9, N-benzyl-9-isopropyl-N-methyl-purin-6-amine]: the EC50 in the data set with Aβ42 production worked out at 12 µM. Also, the Toxicity result in the data set on N2a-APP695 cells was “- ("-" means that the tested compound is non toxic with a concentration higher than 100 µM)”.
For `CC[C@H](CO)Nc1nc(SCc2ccccc2)c2ncn(C(C)C)c2n1` [Compound 47, (2R)-2-[(6-benzylsulfanyl-9-isopropyl-purin-2-yl)amino]butan-1-ol], in that order: greater than 10 µM and “+”.
Turning to `CN(Cc1ccccc1)c1ncnc2c1ncn2C1CCCC1` [Compound 12], the EC50 in the data set with Aβ42 production is 12 µM. In the data set with N2a-APP695 cells, the Toxicity result is on record as “+” and the “Toxicity (concentration in brackets)” value is greater than 31 µM.
`CCN(Cc1ccccc1)c1nc(N[C@@H](CO)C(C)C)nc2c1ncn2C1CCCC1` [Compound 15]: the EC50 in the data set with Aβ42 production worked out at 0.5 µM. Besides, the Toxicity entry in the data set on N2a-APP695 cells is “+”.

In general, EC50 refers to the concentration at which the effect is half-maximal.
